Laboratory results: US20230203044A1, “PYRAZOLO[1,5-D][1,2,4]TRIAZINE-5(4H)-ACETAMIDES AS INHIBITORS OF THE NLRP3 INFLAMMASOME” (JANSSEN PHARMACEUTICA NV, priority 2020, published 2023)

Key:
[1] = test system: NLRP3 inflammasome; assay: PBMC assay: IL-1β in LPS-stimulated human PBMCs (MSD); format: cell-based; details: human PBMCs, 100 ng/ml LPS for 6 hrs, IL-1β in supernatant via MSD, read-out: IL1β IC50
Experimental: The activity of a compound according to the present invention can be assessed by in vitro methods.
Peripheral venous blood was collected from healthy individuals and human peripheral blood mononuclear cells (PBMCs) were isolated from blood by Ficoll-Histopaque (Sigma-Aldrich, A0561) density gradient centrifugation. After isolation, PBMCs were stored in liquid nitrogen for later use. Upon thawing, PBMC cell viability was determined in growth medium (RPMI media supplemented with 10% fetal bovine serum, 1% Pen-Strep and 1% L-glutamine). […] PBMCs were added at a density of 7.5×10^4 cells per well and incubated for 30 min in a 5% CO2 incubator at 37° C. LPS stimulation was performed by addition of 100 ng/ml LPS (final concentration, Invivogen, tlrl-smlps) for 6 hrs followed by collection of cellular supernatant and the analysis of IL-1β (μM) and TNF cytokines levels (μM) via MSD technology according to manufacturers' guidelines (MSD, K151A0H).

[2] = test system: TNF; assay: PBMC assay: TNF cytokine levels in LPS-stimulated human PBMCs (MSD); format: cell-based; details: 100 ng/ml LPS for 6 hrs, TNF in supernatant via MSD
Experimental: Peripheral venous blood was collected from healthy individuals and human peripheral blood mononuclear cells (PBMCs) were isolated from blood by Ficoll-Histopaque (Sigma-Aldrich, A0561) density gradient centrifugation. After isolation, PBMCs were stored in liquid nitrogen for later use. Upon thawing, PBMC cell viability was determined in growth medium (RPMI media supplemented with 10% fetal bovine serum, 1% Pen-Strep and 1% L-glutamine). Compounds were spotted in a 1:3 serial dilution in DMSO and diluted to the final concentration in 30 μl medium in 96 well plates (Falcon, 353072). PBMCs were added at a density of 7.5×10^4 cells per well and incubated for 30 min in a 5% CO2 incubator at 37° C. LPS stimulation was performed by addition of 100 ng/ml LPS (final concentration, Invivogen, tlrl-smlps) for 6 hrs followed by collection of cellular supernatant and the analysis of IL-1β (μM) and TNF cytokines levels (μM) via MSD technology according to manufacturers' guidelines (MSD, K151A0H).
The IC50 values (for IL-1β) and EC50 values (TNF) were obtained on compounds of the invention/examples, and are depicted in the following table: […]

IC50 [1] [nM]	EC50 [2] [nM]	SMILES
340	> 10000	CCc1cc2c(=O)n(CC(=O)Nc3ccncn3)nc(C(C)C)n2n1 [Final Cpd 1, 2-(2-ethyl-7-isopropyl-4-oxo-pyrazolo[1,5-d][1,2,4]triazin-5-yl)-N-pyrimidin-4-yl-acetamide]
< 120	> 10000	CC(C)c1nn(CC(=O)Nc2ccncn2)c(=O)c2cc(I)nn12 [Final Cpd 2, 2-(2-iodo-7-isopropyl-4-oxo-pyrazolo[1,5-d][1,2,4]triazinyl)-N-pyrimidin-4-yl-acetamide]
280	> 10000	CC(C)c1cc2c(=O)n(CC(=O)Nc3ccncn3)nc(C(C)C)n2n1 [Final Cpd 3]
290	> 10000	CCc1nn(CC(=O)Nc2ccncn2)c(=O)c2cc(I)nn12 [Final Cpd 4, 2-(7-ethyl-2-iodo-4-oxo-pyrazolo[1,5-d][1,2,4]triazin-5-yl)-N-pyrimidin-4-yl-acetamide]
230	> 10000	CCc1nn(CC(=O)Nc2ccc3nncn3c2)c(=O)c2cc(I)nn12 [Final Cpd 6]
600	> 10000	CCc1nn(CC(=O)N[C@H]2C[C@@](C)(O)C2)c(=O)c2cc(I)nn12 [Final Cpd 7]
640	> 10000	CCc1nn(CC(=O)Nc2ccncn2)c(=O)c2cc(C3CC3)nn12 [Final Cpd 10, 2-(2-cyclopropyl-7-ethyl-4-oxo-pyrazolo[1,5-d][1,2,4]triazin-5-yl)-N-pyrimidin-4-yl-acetamide]
170	> 10000	CC(C)c1nn(CC(=O)Nc2ccncn2)c(=O)c2cc(C3CC3)nn12 [Final Cpd 11]
600	> 10000	CCCc1cc2c(=O)n(CC(=O)Nc3ccncn3)nc(C(C)C)n2n1 [Final Cpd 12]
1710	> 10000	CCc1cc2c(=O)n(CC(=O)Nc3ccncn3)nc(CC)n2n1 [Final Cpd 13]
8110	> 10000	CCc1nn(CC(=O)Nc2ccncn2)c(=O)c2cc(C)nn12 [Final Cpd 14]
2400	> 10000	CCCc1cc2c(=O)n(CC(=O)Nc3ccncn3)nc(CC)n2n1 [Final Cpd 15]
840	> 10000	CCc1nn(CC(=O)Nc2ccncn2)c(=O)c2cc(C(C)C)nn12 [Final Cpd 16]
1100	> 10000	Cc1cc2c(=O)n(CC(=O)Nc3ccncn3)nc(C(C)C)n2n1 [Final Cpd 17]
160	> 10000	CNc1cc2c(=O)n(CC(=O)Nc3ccncn3)nc(C(C)C)n2n1 [Final Cpd 18, 2-[7-isopropyl-2-(methylamino)-4-oxo-pyrazolo[1,5-d] [1,2,4]triazin-5-yl]—N-pyrimidin-4-yl-acetamide]
1140	> 10000	CCc1nn(CC(=O)Nc2ccncn2)c(=O)c2cc(NC)nn12 [Final Cpd 20]
2750	> 10000	CC(C)c1nn(CC(=O)Nc2ccncn2)c(=O)c2cc(N3CCC3)nn12 [Final Cpd 21]
1350	> 10000	CC(C)c1nn(CC(=O)Nc2ccncn2)c(=O)c2cc(N(C)C)nn12 [Final Cpd 22]
55	> 10000	CC(C)c1nn(CC(=O)Nc2ccc3nncn3c2)c(=O)c2cc(I)nn12 [Final Cpd 23]
150	> 10000	CC(C)c1nn(CC(=O)Nc2ccnnc2)c(=O)c2cc(C3CC3)nn12 [Final Cpd 32]

Second part, the compound before the results:

SMILES	IC50 [1] [nM]	EC50 [2] [nM]
CC(C)c1nn(CC(=O)N[C@H]2C[C@@](C)(O)C2)c(=O)c2cc(C3CC3)nn12 [Final Cpd 8]	240	> 10000
CC(C)c1nn(CC(=O)N[C@@H]2CCCN(C3CCC3)C2)c(=O)c2cc(C3CC3)nn12 [Final Cpd 9]	< 120	> 10000
CC(C)c1nn(CC(=O)N[C@H]2C[C@@](C)(O)C2)c(=O)c2cc(I)nn12 [Final Cpd 24]	110	> 10000
CC(C)c1nn(CC(=O)NC2CCC(=O)N(CC3CC3)C2)c(=O)c2cc(C3CC3)nn12 (stereo not shown) [Final Cpd 25]	2340	> 10000
CC(C)c1nn(CC(=O)N[C@@H]2CCC(=O)N(CC3CC3)C2)c(=O)c2cc(C3CC3)nn12 [Final Cpd 26]	> 10000	> 10000
CC(C)c1nn(CC(=O)N[C@H]2CCC(=O)N(CC3CC3)C2)c(=O)c2cc(C3CC3)nn12 [Final Cpd 27]	990	> 10000
CC(C)c1nn(CC(=O)Nc2ccc(=O)n(C)c2)c(=O)c2cc(C3CC3)nn12 [Final Cpd 28]	380	> 10000
CC(C)c1nn(CC(=O)NC2CCC(=O)N(C)C2)c(=O)c2cc(C3CC3)nn12 (stereo not shown) [Final Cpd 29]	1790	> 10000
CC(C)c1nn(CC(=O)N[C@@H]2CCC(=O)N(C)C2)c(=O)c2cc(C3CC3)nn12 [Final Cpd 30]	1430	> 10000
CC(C)c1nn(CC(=O)N[C@H]2CCC(=O)N(C)C2)c(=O)c2cc(C3CC3)nn12 [Final Cpd 31]	690	> 10000
CC(C)c1nn(CC(=O)N[C@@H]2CCOC[C@@H]2O)c(=O)c2cc(C3CC3)nn12 [Final Cpd 33]	1560	> 10000
CC(C)c1nn(CC(=O)N[C@H]2CN(C(=O)OC(C)(C)C)CC[C@H]2O)c(=O)c2cc(C3CC3)nn12 [Final Cpd 34]	5660	> 10000
CC(C)c1nn(CC(=O)Nc2ccc(=O)n(CC3CC3)c2)c(=O)c2cc(C3CC3)nn12 [Final Cpd 35]	380	> 10000
CC(C)c1nn(CC(=O)NC2CCOCC2)c(=O)c2cc(C3CC3)nn12 [Final Cpd 36]	970	> 10000
CN(C)c1nn(CC(=O)Nc2ccc3nncn3c2)c(=O)c2cc(C3CC3)nn12 [Final Cpd 37]	560	> 10000
COCCN(C)c1nn(CC(=O)Nc2ccc3nncn3c2)c(=O)c2cc(C3CC3)nn12 [Final Cpd 38]	> 10000	> 10000
COCCNc1nn(CC(=O)Nc2ccc3nncn3c2)c(=O)c2cc(C3CC3)nn12 [Final Cpd 39]	2490	> 10000
CC(C)c1nn(CC(=O)N[C@H]2C[C@@](C)(O)C2)c(=O)c2cc(NCC(F)(F)F)nn12 [Final Cpd 41]	880	> 10000
CC(C)c1nn(CC(=O)Nc2ccc3nncn3c2)c(=O)c2cc(NCC(F)(F)F)nn12 [Final Cpd 42]	220	> 10000
CC(C)c1nn(CC(=O)N[C@H]2C[C@@](C)(O)C2)c(=O)c2c(F)c(C3CC3)nn12 [Final Cpd 43]	1060	> 10000
CCOC(=O)C1CC(Cc2cc3c(=O)n(CC(=O)Nc4ccnnc4)nc(C(C)C)n3n2)C1 (stereo not shown) [Final Cpd 177, ethyl 3-((7-isopropyl-4-oxo-5-(2-oxo-2-(pyridazin-4-ylamino)ethyl)-4,5-dihydropyrazolo[1,5-d][1,2,4]triazin-2-yl)methyl)cyclobutane-1-carboxylate]	2060	–
CC(C)c1nn(CC(=O)N[C@H]2CN(C3CCC3)CC[C@H]2O)c(=O)c2cc(C3CC3)nn12 [Final Cpd 191, N-((3 S,4R)-1-cyclobutyl-4-hydroxypiperidin-3-yl)-2-(2-cyclopropyl-7-isopropyl-4-oxopyrazolo[1,5-d][1,2,4]triazin-5(4H)-yl)acetamide]	–	> 10000
